Where two headings read alike, the source gives them in different places.
Molecular target: T1, T. gondii CDPK1 (tgCDPK1) (Toxoplasma gondii, UniProt Q9BJF5)
T1 sequence (Q9BJF5 1-507): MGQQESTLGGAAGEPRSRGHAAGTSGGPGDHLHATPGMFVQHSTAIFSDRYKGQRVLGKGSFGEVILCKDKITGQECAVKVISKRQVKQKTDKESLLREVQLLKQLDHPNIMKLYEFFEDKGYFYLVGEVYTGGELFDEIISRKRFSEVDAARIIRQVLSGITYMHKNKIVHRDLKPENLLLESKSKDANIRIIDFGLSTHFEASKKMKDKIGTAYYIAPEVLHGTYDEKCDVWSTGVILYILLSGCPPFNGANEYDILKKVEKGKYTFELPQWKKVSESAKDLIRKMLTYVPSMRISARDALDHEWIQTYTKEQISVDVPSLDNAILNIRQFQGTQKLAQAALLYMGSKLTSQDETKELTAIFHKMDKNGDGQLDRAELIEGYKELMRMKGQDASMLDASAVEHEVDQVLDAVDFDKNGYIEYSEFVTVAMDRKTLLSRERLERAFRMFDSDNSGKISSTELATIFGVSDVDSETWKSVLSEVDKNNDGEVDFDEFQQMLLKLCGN
Assay: biochemical
Settings: at least three independent replicates
Protocol: Certain of the compounds prepared as described above were assayed to determine their IC50 for inhibition of T. gondii CDPK1 (tgCDPK1). At least three independent replicates of the assay were conducted for each compound tested.

[1] = inhibition of T. gondii CDPK1, read-out: tgCDPK1 IC50

NC(=O)c1ccnc(Oc2nn(C3CCC(F)(F)CC3)c3ncnc(N)c23)c1 [Compound 206]
IC50 [1]: 96.8 nM

COc1ccnc(Oc2nn(C3CCOC3)c3ncnc(N)c23)c1 (stereo not shown) [Compound 219]
IC50 [1]: 77.4 nM

CC(C)(C)OC(=O)N1CCC(Cn2nc(Oc3cc(C(F)(F)F)ccn3)c3c(N)ncnc32)C(F)(F)C1 (stereo not shown) [Compound 196]
IC50 [1]: 64.8 nM

Nc1ncnc2c1c(Oc1cc(C(F)(F)F)ccn1)nn2[C@H]1C[C@@H](O)C1 [Compound 170]
IC50 [1]: 38.6 nM

COc1ccnc(Oc2nn([C@H]3CCCC[C@H]3O)c3ncnc(N)c23)c1 (single isomer, unassigned) [Compound 286]
IC50 [1]: 144 nM

COc1ccnc(Oc2nn([C@@H]3CCCC[C@H]3O)c3ncnc(N)c23)c1 [Compound 281]
IC50 [1]: 26.2 nM

Nc1ncnc2c1c(Oc1cccc(Cl)c1)nn2C1CCC1 [Compound 121, 3-(3-chlorophenoxy)-1-cyclobutyl-1H-pyrazolo[3,4-d]pyrimidin-4-amine]
IC50 [1]: 7.41 nM

CC(C)(C)n1nc(Oc2cc(C(F)(F)F)ccn2)c2c(N)ncnc21 [Compound 258]
IC50 [1]: 13.9 nM

CC(C)(C)OC(=O)N1CCC(n2nc(Oc3cc(C(F)(F)F)ccn3)c3c(N)ncnc32)C1 (stereo not shown) [Compound 199]
IC50 [1]: 38.9 nM

Nc1ncnc2c1c(Oc1cc(C(F)(F)F)ccn1)nn2C1CCNCC1(F)F (stereo not shown) [Compound 271]
IC50 [1]: 19.8 nM

COc1ccnc(Oc2nn([C@H]3C[C@@H](O)C3)c3ncnc(N)c23)c1 [Compound 168]
IC50 [1]: 37.1 nM

Nc1ncnc2c1c(Cc1cccc(Cl)c1)nn2[C@H]1C[C@@H](O)C1 [Compound 130, (cis)-3-(4-amino-3-(3-chlorobenzyl)-1H-pyrazolo[3,4-d]pyrimidin-1-yl)cyclobutan-1-ol]
IC50 [1]: 15.1 nM

Nc1ncnc2c1c(Oc1cc(O)ccn1)nn2[C@@H]1CCCC[C@H]1O (single isomer, unassigned) [Compound 283]
IC50 [1]: 147 nM

N#Cc1ccnc(Oc2nn(C3CCCCC3)c3ncnc(N)c23)c1 [Compound 215]
IC50 [1]: 12.3 nM

Nc1ncnc2c1c(Oc1cc(C(F)(F)F)ccn1)nn2[C@H]1CCCC[C@H]1F [Compound 233]
IC50 [1]: 34.4 nM

COC(=O)C1CCC(n2nc(Oc3cc(C(F)(F)F)ccn3)c3c(N)ncnc32)CC1 (stereo not shown) [Compound 228]
IC50 [1]: 25.4 nM

N#Cc1cccc(Oc2nn([C@H]3C[C@H](O)C3)c3ncnc(N)c23)c1 [Compound 178]
IC50 [1]: 79.6 nM

Nc1ncnc2c1c(Cc1cccc(Cl)c1)nn2[C@H]1C[C@@H](F)C1 [Compound 135, 3-(3-chlorobenzyl)-1-((cis)-3-fluorocyclobutyl)-1H-pyrazolo[3,4-d]pyrimidin-4-amine]
IC50 [1]: 7.05 nM

Nc1ncnc2c1c(Cc1c[nH]c3ccc(F)cc13)nn2[C@H]1C[C@H](O)C1 [Compound 184]
IC50 [1]: 10.2 nM

Nc1ncnc2c1c(Oc1cccc(Cl)c1)nn2[C@H]1C[C@H](F)C1 [Compound 171]
IC50 (tgCDPK1 IC50, inhibition of T. gondii CDPK1): 41.1 nM

Nc1ncnc2c1c(Cc1cccc(Br)c1)nn2[C@H]1C[C@@H](O)C1 [Compound 131]
IC50 [1]: 11.4 nM

CCOC(=O)C1(n2nc(Oc3cc(C(F)(F)F)ccn3)c3c(N)ncnc32)CCC1 [Compound 287]
IC50 [1]: 728 nM

Nc1ncnc2c1c(Oc1cc(Cl)ccn1)nn2C1CCOC1 (stereo not shown) [Compound 202]
IC50 [1]: 55.7 nM

COc1ccnc(Oc2nn([C@H]3C[C@H](F)C3)c3ncnc(N)c23)c1 [Compound 162]
IC50 [1]: 17.4 nM

COc1ccnc(Oc2nn([C@@H]3CCCC[C@H]3O)c3ncnc(N)c23)c1 (single isomer, unassigned) [Compound 285]
IC50 [1]: 1400 nM

Nc1ncnc2c1c(Oc1cc(C(F)(F)F)ccn1)nn2C1CCNCC1 [Compound 194]
IC50 [1]: 67.8 nM

Nc1ncnc2c1c(Cc1cccc(F)c1)nn2[C@H]1C[C@@H](O)C1 [Compound 132]
IC50 [1]: 28.4 nM

Nc1ncnc2c1c(Oc1cccc(Cl)c1)nn2CC1(CO)CC1 [Compound 250]
IC50 [1]: 34.9 nM

Nc1ncnc2c1c(Oc1cc(C(F)(F)F)ccn1)nn2C1CC(F)(F)CCC1O (stereo not shown) [Compound 274]
IC50 [1]: 35 nM

Nc1ncnc2c1c(Oc1cccc(C(F)(F)F)c1)nn2[C@H]1C[C@H](F)C1 [Compound 166]
IC50 [1]: 28.9 nM

Nc1ncnc2c1c(Oc1cc(C(F)(F)F)ccn1)nn2C1CCCC1 [Compound 192]
IC50 [1]: 19.2 nM

(trans)-3-(4-amino-3-((5-fluoro-1H-indol-3-yl)methyl)-1H-pyrazolo[3,4-d]pyrimidin-1-yl)cyclobutan-1-ol [Compound 154]
IC50 [1]: 11.8 nM

CO[C@H]1CC[C@H](n2nc(Oc3cc(C(F)(F)F)ccn3)c3c(N)ncnc32)CC1 [Compound 237]
IC50 [1]: 38.1 nM

Nc1ncnc2c1c(Cc1cccc(F)c1)nn2[C@H]1C[C@H](O)C1 [Compound 128]
IC50 [1]: 28.3 nM

N#Cc1ccnc(Oc2nn(CC3CC3)c3ncnc(N)c23)c1 [Compound 221]
IC50 [1]: 24.1 nM

Nc1ncnc2c1c(Oc1cc(Cl)ccn1)nn2C1CCNCC1 [Compound 188]
IC50 [1]: 29.7 nM

COc1ccnc(Oc2nn(CC3CC3)c3ncnc(N)c23)c1 [Compound 223]
IC50 [1]: 25.1 nM

COc1ccnc(Oc2nn([C@H]3CCCC[C@H]3O)c3ncnc(N)c23)c1 [Compound 282]
IC50 [1]: 41.3 nM

Nc1ncnc2c1c(Oc1cccc(C(F)(F)F)c1)nn2[C@H]1C[C@@H](O)C1 [Compound 151]
IC50 [1]: 31.3 nM

Nc1ncnc2c1c(Oc1cc(C(F)(F)F)ccn1)nn2[C@H]1CCCC[C@H]1O (racemic) [191 cis (rac)]
IC50 [1]: 44 nM

Nc1ncnc2c1c(Oc1cc(Cl)ccn1)nn2C1CCCC1 [Compound 201]
IC50 [1]: 16.7 nM

N#Cc1cccc(Oc2nn([C@H]3C[C@H](F)C3)c3ncnc(N)c23)c1 [Compound 173]
IC50 [1]: 49.8 nM

Nc1ncnc2c1c(Oc1cc(Cl)ccn1)nn2C1CCCCC1 [Compound 214]
IC50 [1]: 4.6 nM

Nc1ncnc2c1c(Cc1cccc(Cl)c1)nn2[C@H]1C[C@H](O)C1 [Compound 124, (trans)-3-(4-amino-3-(3-chlorobenzyl)-1H-pyrazolo[3,4-d]pyrimidin-1-yl)cyclobutan-1-ol]
IC50 [1]: 8.87 nM

N#Cc1ccnc(Oc2nn(C3CCC(F)(F)CC3)c3ncnc(N)c23)c1 [Compound 203]
IC50 [1]: 84.8 nM

CN(C)C1CCC(n2nc(Oc3cc(C(F)(F)F)ccn3)c3c(N)ncnc32)CC1 (stereo not shown) [Compound 227]
IC50 [1]: 28.5 nM

Nc1ncnc2c1c(Cc1cccc(Br)c1)nn2[C@H]1C[C@H](O)C1 [Compound 127]
IC50 [1]: 18.4 nM

CC(C)(C)n1nc(Oc2cc(C(N)=O)ccn2)c2c(N)ncnc21 [Compound 260]
IC50 [1]: 40.5 nM

Nc1ncnc2c1c(Oc1cc(Cl)ccn1)nn2CC1CCNCC1(F)F (stereo not shown) [Compound 213]
IC50 [1]: 9.7 nM

Nc1ncnc2c1c(Oc1cccc(Cl)c1)nn2[C@H]1C[C@H](F)C1 [Compound 156]
IC50 [1]: 10 nM

Nc1ncnc2c1c(Oc1cc(C(F)(F)F)ccn1)nn2C1CCC(F)(F)CC1 [Compound 185]
IC50 [1]: 38.4 nM

CO[C@H]1CC[C@@H](n2nc(Oc3cc(C(F)(F)F)ccn3)c3c(N)ncnc32)CC1 [Compound 238]
IC50 [1]: 44.7 nM

Nc1ncnc2c1c(Oc1cc(C(F)(F)F)ccn1)nn2[C@H]1C[C@H](O)C1 [Compound 113, (trans)-3-(4-amino-3-((4-(trifluoromethyl)pyridin-2-yl)oxy)-1H-pyrazolo[3,4-d]pyrimidin-1-yl)cyclobutan-1-ol]
IC50 [1]: 26.5 nM

Nc1ncnc2c1c(Oc1cc(OC(F)(F)F)ccn1)nn2C1CC1 [Compound 169]
IC50 [1]: 37.7 nM

Nc1ncnc2c1c(Oc1cc(C(F)(F)F)ccn1)nn2C1CC1 [Compound 159]
IC50 [1]: 13 nM

Reference: patent publication US20210347780A1, “CDPK1 INHIBITORS, COMPOSITIONS, AND METHODS RELATED THERETO” (Vyera Pharmaceuticals, LLC, priority 2018, published 2021)
